Measured values published in the kinase profiling compilation of Christmann-Franck et al. (2016).

Key:
Test in all cases: radiometric filter-binding kinase assay
[1] = molecular target: CDK2 CCNA2 (human) (UniProt P20248+P24941)
[2] = molecular target: PAK7 (human) (UniProt Q9P286)
[3] = molecular target: RIPK2 (human) (UniProt O43353)
[4] = molecular target: MAPK15 (human) (UniProt Q8TD08)
[5] = molecular target: CSK (human) (UniProt P41240)
[6] = molecular target: NUAK1 (human) (UniProt O60285)
Sequence of NUAK1 (human) (O60285 whole entry, looked up): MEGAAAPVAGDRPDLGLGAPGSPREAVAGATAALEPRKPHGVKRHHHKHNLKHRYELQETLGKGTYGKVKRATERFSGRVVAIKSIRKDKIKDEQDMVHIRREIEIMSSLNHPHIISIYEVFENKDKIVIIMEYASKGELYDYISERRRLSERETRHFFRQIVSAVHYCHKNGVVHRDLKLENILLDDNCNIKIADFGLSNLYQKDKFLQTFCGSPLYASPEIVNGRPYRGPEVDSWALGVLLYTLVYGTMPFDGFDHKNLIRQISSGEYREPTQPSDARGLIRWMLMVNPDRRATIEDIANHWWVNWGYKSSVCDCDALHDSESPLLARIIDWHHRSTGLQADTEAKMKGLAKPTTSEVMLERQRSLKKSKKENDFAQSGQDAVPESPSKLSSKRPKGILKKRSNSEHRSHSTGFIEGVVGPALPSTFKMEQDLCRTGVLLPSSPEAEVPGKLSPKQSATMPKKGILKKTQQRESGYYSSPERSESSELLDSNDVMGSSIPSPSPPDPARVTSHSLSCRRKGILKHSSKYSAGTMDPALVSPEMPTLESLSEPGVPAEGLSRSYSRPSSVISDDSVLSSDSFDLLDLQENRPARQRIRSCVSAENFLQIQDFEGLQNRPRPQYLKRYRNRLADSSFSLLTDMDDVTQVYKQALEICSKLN

[7] = system: PRKAA1 or PRKAA2 (rat); settings: accession and sequence are those of the human protein
[8] = molecular target: BTK (human) (UniProt Q06187)
[9] = molecular target: BRSK1 (human) (UniProt Q8TDC3)
[10] = molecular target: INSR (human) (UniProt P06213)
[11] = molecular target: CaMK1 (human) (UniProt Q14012)
[12] = molecular target: MST4 (human) (UniProt Q9P289)
[13] = molecular target: MAPKAPK2 (human) (UniProt P49137)
[14] = molecular target: INSRR (human) (UniProt P14616)
[15] = molecular target: PRKCA (human) (UniProt P17252)
[16] = molecular target: MINK1 (human) (UniProt Q8N4C8)
Sequence of MINK1 (human) (Q8N4C8 whole entry, looked up): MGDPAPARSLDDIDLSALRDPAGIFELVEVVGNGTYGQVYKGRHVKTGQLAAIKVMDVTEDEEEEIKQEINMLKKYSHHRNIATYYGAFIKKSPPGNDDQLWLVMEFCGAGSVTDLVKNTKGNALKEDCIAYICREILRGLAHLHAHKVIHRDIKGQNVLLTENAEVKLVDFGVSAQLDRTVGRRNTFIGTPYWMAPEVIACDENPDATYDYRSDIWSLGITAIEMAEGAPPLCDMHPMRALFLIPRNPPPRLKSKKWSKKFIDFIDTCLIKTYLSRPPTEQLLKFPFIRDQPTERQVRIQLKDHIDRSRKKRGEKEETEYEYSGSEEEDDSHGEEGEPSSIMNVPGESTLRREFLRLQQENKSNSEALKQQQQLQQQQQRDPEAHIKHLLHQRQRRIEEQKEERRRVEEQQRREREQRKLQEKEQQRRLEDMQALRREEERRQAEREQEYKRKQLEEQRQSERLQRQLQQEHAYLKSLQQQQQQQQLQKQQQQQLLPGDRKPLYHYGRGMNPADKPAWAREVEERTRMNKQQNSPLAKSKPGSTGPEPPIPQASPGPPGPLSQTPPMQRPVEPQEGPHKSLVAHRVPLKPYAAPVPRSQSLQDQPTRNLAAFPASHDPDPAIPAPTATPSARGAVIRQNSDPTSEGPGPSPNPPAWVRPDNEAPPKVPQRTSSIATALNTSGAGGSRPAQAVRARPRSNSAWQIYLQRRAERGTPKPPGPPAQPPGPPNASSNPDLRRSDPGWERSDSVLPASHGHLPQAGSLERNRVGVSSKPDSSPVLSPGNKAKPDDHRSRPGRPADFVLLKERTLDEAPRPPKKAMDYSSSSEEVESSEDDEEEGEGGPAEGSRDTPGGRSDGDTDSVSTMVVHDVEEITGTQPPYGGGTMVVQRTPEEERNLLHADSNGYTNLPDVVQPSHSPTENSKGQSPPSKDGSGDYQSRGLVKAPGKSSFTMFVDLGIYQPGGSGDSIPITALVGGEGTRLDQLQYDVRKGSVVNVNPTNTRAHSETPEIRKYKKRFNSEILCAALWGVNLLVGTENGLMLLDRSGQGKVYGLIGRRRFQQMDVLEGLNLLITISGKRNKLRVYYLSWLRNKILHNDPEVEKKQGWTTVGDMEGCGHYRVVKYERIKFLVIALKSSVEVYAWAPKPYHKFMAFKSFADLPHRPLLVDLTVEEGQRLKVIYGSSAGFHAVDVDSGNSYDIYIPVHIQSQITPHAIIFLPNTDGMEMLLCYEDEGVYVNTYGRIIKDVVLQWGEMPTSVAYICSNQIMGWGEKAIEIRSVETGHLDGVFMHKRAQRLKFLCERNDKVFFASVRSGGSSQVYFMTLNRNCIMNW

[17] = molecular target: EPHA4 (human) (UniProt P54764)
[18] = molecular target: NEK2 (human) (UniProt P51955)
[19] = molecular target: DYRK2 (human) (UniProt Q92630)
[20] = molecular target: JAK2 JH1 JH2 (human) (UniProt O60674)
[21] = molecular target: PHKG1 (human) (UniProt Q16816)
[22] = molecular target: EPHA2 (human) (UniProt P29317)
Sequence of EPHA2 (human) (P29317 whole entry, looked up): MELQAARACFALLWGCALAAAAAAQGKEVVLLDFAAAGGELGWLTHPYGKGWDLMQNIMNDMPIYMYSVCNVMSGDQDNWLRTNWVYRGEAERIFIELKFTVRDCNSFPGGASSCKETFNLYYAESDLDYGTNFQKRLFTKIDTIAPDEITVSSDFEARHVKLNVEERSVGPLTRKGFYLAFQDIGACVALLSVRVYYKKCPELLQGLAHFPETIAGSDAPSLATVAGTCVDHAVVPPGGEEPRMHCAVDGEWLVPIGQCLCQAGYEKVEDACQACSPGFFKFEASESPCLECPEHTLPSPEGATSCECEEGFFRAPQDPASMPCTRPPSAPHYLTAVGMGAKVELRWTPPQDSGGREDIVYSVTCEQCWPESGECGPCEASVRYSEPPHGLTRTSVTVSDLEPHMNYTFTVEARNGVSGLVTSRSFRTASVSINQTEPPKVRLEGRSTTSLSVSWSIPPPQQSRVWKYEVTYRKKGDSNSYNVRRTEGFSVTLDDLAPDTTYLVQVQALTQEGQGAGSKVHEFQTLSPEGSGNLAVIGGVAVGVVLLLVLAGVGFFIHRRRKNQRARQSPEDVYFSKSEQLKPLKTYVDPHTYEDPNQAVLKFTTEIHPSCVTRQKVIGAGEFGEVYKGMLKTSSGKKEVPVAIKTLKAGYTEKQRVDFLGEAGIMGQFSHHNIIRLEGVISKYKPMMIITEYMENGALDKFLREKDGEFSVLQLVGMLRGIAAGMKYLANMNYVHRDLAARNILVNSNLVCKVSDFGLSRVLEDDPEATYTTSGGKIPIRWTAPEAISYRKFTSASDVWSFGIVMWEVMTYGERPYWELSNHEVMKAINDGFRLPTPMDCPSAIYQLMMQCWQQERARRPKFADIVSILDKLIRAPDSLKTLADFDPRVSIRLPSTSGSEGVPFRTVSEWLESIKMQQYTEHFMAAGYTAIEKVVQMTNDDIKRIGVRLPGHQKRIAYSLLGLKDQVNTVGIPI

[23] = molecular target: SRPK1 (human) (UniProt Q96SB4)
[24] = molecular target: MKNK1 (human) (UniProt Q9BUB5)
[25] = molecular target: MARK1 (human) (UniProt Q9P0L2)
[26] = system: LCK (mouse); settings: accession and sequence are those of the human protein
[27] = molecular target: ERBB4 (human) (UniProt Q15303)
Sequence of ERBB4 (human) (Q15303 whole entry, looked up): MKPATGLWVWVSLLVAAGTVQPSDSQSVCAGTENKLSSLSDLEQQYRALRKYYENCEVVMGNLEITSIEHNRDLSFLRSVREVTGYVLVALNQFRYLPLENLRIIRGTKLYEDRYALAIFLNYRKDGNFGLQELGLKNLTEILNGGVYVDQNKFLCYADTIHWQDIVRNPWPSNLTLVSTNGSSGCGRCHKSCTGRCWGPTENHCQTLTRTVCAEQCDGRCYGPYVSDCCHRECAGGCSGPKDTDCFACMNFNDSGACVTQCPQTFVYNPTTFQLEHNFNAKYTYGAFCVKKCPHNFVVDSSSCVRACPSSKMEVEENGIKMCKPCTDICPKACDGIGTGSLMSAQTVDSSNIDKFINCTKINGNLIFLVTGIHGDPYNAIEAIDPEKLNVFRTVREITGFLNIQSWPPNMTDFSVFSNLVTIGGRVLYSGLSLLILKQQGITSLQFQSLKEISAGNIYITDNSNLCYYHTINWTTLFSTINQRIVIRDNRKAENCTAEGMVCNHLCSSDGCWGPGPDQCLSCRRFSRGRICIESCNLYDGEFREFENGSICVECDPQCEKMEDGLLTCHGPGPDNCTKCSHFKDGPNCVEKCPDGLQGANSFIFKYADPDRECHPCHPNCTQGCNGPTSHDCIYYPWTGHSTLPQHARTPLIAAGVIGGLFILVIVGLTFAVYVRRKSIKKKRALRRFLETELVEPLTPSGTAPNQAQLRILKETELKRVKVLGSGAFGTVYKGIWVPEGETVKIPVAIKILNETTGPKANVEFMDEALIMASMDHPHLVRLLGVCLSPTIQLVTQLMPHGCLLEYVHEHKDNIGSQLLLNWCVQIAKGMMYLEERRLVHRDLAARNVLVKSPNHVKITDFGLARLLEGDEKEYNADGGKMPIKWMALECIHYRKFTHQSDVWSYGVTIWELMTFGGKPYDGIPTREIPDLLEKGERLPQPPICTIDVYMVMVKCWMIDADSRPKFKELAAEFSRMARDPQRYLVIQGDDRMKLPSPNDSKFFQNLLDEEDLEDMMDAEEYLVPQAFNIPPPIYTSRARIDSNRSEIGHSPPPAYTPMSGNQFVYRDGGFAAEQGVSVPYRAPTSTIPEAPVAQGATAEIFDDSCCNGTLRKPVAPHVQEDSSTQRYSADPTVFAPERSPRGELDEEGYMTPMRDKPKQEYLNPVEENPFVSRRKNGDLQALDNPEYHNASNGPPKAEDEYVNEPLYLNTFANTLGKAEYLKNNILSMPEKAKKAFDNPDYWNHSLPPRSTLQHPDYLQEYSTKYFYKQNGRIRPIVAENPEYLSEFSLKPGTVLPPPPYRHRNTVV

[28] = molecular target: EPHB2 (human) (UniProt P29323)
[29] = molecular target: MAP2K1 (human) (UniProt Q02750)
[30] = molecular target: HIPK3 (human) (UniProt Q9H422)
[31] = molecular target: CAMKK2 (human) (UniProt Q96RR4)
[32] = molecular target: RPS6KA5 KD1 KD2 (human) (UniProt O75582)
[33] = molecular target: NEK6 (human) (UniProt Q9HC98)
Sequence of NEK6 (human) (Q9HC98 whole entry, looked up): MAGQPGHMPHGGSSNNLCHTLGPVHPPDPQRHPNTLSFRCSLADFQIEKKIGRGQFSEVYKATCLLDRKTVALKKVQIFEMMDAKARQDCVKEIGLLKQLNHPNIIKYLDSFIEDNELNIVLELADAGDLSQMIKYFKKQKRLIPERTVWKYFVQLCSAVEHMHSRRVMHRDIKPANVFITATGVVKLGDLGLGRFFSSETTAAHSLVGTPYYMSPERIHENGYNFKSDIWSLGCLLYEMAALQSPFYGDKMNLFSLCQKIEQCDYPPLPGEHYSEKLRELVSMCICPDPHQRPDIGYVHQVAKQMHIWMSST

[34] = molecular target: MARK2 (human) (UniProt Q7KZI7)
[35] = molecular target: PRKACA (human) (UniProt P17612)

Sequence of CSK (human) (P41240 whole entry, looked up): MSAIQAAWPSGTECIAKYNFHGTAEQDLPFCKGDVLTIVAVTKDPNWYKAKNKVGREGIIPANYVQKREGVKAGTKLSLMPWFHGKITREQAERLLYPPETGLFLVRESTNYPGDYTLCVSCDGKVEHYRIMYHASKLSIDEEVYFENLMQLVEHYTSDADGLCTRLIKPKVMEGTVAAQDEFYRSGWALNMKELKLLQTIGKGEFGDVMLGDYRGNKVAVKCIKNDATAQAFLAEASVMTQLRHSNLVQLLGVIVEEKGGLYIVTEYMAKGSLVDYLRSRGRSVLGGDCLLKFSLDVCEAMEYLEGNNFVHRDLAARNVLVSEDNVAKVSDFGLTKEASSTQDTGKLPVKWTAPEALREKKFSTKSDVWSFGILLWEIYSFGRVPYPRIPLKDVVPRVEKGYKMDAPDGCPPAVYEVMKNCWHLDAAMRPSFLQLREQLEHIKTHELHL

## NC(=O)c1cc2c(-c3cccc(-c4ccccc4)c3)cnc(N)c2s1
[1]; compound 0.1 µM
  residual activity: 97%
[1]; compound 1.0 µM
  residual activity: 87%
[1]; compound 10.0 µM
  residual activity: 35%
[2]; compound 0.1 µM
  residual activity: 79%
[2]; compound 1.0 µM
  residual activity: 37%
[2]; compound 10.0 µM
  residual activity: 16%
[3]; compound 0.1 µM
  residual activity: 86%
[3]; compound 1.0 µM
  residual activity: 36%
[3]; compound 10.0 µM
  residual activity: 12%
[4]; compound 0.1 µM
  residual activity: 99%
[4]; compound 1.0 µM
  residual activity: 50%
[4]; compound 10.0 µM
  residual activity: 23%
[5]; compound 0.1 µM
  residual activity: 90%
[5]; compound 1.0 µM
  residual activity: 82%
[5]; compound 10.0 µM
  residual activity: 58%
[6]; compound 0.1 µM
  residual activity: 81%
[6]; compound 1.0 µM
  residual activity: 24%
[6]; compound 10.0 µM
  residual activity: 6%
[7]; compound 0.1 µM
  residual activity: 99%
[7]; compound 1.0 µM
  residual activity: 95%
[7]; compound 10.0 µM
  residual activity: 68%
[8]; compound 1.0 µM
  residual activity: 94%
[8]; compound 10.0 µM
  residual activity: 30%
[9]; compound 0.1 µM
  residual activity: 102%
[9]; compound 1.0 µM
  residual activity: 81%
[9]; compound 10.0 µM
  residual activity: 89%
[10]; compound 0.1 µM
  residual activity: 103%
[10]; compound 1.0 µM
  residual activity: 81%
[10]; compound 10.0 µM
  residual activity: 18%
[11]; compound 0.1 µM
  residual activity: 107%
[11]; compound 1.0 µM
  residual activity: 90%
[11]; compound 10.0 µM
  residual activity: 38%
[12]; compound 0.1 µM
  residual activity: 102%
[12]; compound 1.0 µM
  residual activity: 75%
[12]; compound 10.0 µM
  residual activity: 35%
[13]; compound 0.1 µM
  residual activity: 102%
[13]; compound 1.0 µM
  residual activity: 101%
[13]; compound 10.0 µM
  residual activity: 94%
[14]; compound 0.1 µM
  residual activity: 66%
[14]; compound 1.0 µM
  residual activity: 26%
[14]; compound 10.0 µM
  residual activity: 16%
[15]; compound 0.1 µM
  residual activity: 94%
[15]; compound 1.0 µM
  residual activity: 64%
[15]; compound 10.0 µM
  residual activity: 18%
[16]; compound 0.1 µM
  residual activity: 58%
[16]; compound 1.0 µM
  residual activity: 12%
[16]; compound 10.0 µM
  residual activity: 4%
[17]; compound 0.1 µM
  residual activity: 93%
[17]; compound 1.0 µM
  residual activity: 89%
[17]; compound 10.0 µM
  residual activity: 71%
[18]; compound 0.1 µM
  residual activity: 88%
[18]; compound 1.0 µM
  residual activity: 74%
[18]; compound 10.0 µM
  residual activity: 44%
[19]; compound 0.1 µM
  residual activity: 101%
[19]; compound 1.0 µM
  residual activity: 77%
[19]; compound 10.0 µM
  residual activity: 88%
[20]; compound 0.1 µM
  residual activity: 101%
[20]; compound 1.0 µM
  residual activity: 90%
[20]; compound 10.0 µM
  residual activity: 43%
[21]; compound 0.1 µM
  residual activity: 104%
[21]; compound 1.0 µM
  residual activity: 92%
[21]; compound 10.0 µM
  residual activity: 55%
[22]; compound 0.1 µM
  residual activity: 87%
[22]; compound 1.0 µM
  residual activity: 78%
[22]; compound 10.0 µM
  residual activity: 86%
[23]; compound 0.1 µM
  residual activity: 87%
[23]; compound 1.0 µM
  residual activity: 67%
[23]; compound 10.0 µM
  residual activity: 17%
[24]; compound 0.1 µM
  residual activity: 107%
[24]; compound 1.0 µM
  residual activity: 114%
[24]; compound 10.0 µM
  residual activity: 99%
[25]; compound 0.1 µM
  residual activity: 78%
[25]; compound 1.0 µM
  residual activity: 66%
[25]; compound 10.0 µM
  residual activity: 37%
[26]; compound 0.1 µM
  residual activity: 105%
[26]; compound 1.0 µM
  residual activity: 88%
[26]; compound 10.0 µM
  residual activity: 67%
[27]; compound 1.0 µM
  residual activity: 40%
[27]; compound 10.0 µM
  residual activity: 17%
[28]; compound 0.1 µM
  residual activity: 90%
[28]; compound 1.0 µM
  residual activity: 74%
[28]; compound 10.0 µM
  residual activity: 24%
[29]; compound 0.1 µM
  residual activity: 90%
[29]; compound 1.0 µM
  residual activity: 86%
[29]; compound 10.0 µM
  residual activity: 17%
[30]; compound 0.1 µM
  residual activity: 76%
[30]; compound 1.0 µM
  residual activity: 52%
[30]; compound 10.0 µM
  residual activity: 19%
[31]; compound 0.1 µM
  residual activity: 99%
[31]; compound 1.0 µM
  residual activity: 61%
[31]; compound 10.0 µM
  residual activity: 30%
[32]; compound 1.0 µM
  residual activity: 97%
[32]; compound 10.0 µM
  residual activity: 70%
[33]; compound 0.1 µM
  residual activity: 108%
[33]; compound 1.0 µM
  residual activity: 98%
[33]; compound 10.0 µM
  residual activity: 135%
[34]; compound 0.1 µM
  residual activity: 103%
[34]; compound 1.0 µM
  residual activity: 65%
[34]; compound 10.0 µM
  residual activity: 28%
[35]; compound 0.1 µM
  residual activity: 80%
[35]; compound 1.0 µM
  residual activity: 103%
[35]; compound 10.0 µM
  residual activity: 96%

## COc1ccc(-n2ncc3cnc(Nc4cc(OC)c(OC)c(OCCCN5CCN(C)CC5)c4)nc32)cc1
[1]; compound 0.1 µM
  residual activity: 34%
[1]; compound 1.0 µM
  residual activity: 7%
[2]; compound 0.1 µM
  residual activity: 53%
[2]; compound 1.0 µM
  residual activity: 18%
[3]; compound 0.1 µM
  residual activity: 28%
[3]; compound 1.0 µM
  residual activity: 14%
[4]; compound 0.1 µM
  residual activity: 22%
[4]; compound 1.0 µM
  residual activity: 4%
[5]; compound 0.1 µM
  residual activity: 65%
[5]; compound 1.0 µM
  residual activity: 38%
[6]; compound 0.1 µM
  residual activity: 16%
[6]; compound 1.0 µM
  residual activity: 13%
[7]; compound 0.1 µM
  residual activity: 25%
[7]; compound 1.0 µM
  residual activity: 22%
[8]; compound 0.1 µM
  residual activity: 22%
[8]; compound 1.0 µM
  residual activity: 14%
[9]; compound 0.1 µM
  residual activity: 74%
[9]; compound 1.0 µM
  residual activity: 17%
[10]; compound 0.1 µM
  residual activity: 79%
[10]; compound 1.0 µM
  residual activity: 21%
[11]; compound 0.1 µM
  residual activity: 67%
[11]; compound 1.0 µM
  residual activity: 26%
[12]; compound 0.1 µM
  residual activity: 90%
[12]; compound 1.0 µM
  residual activity: 67%
[13]; compound 1.0 µM
  residual activity: 108%
[14]; compound 0.1 µM
  residual activity: 78%
[14]; compound 1.0 µM
  residual activity: 35%
[15]; compound 0.1 µM
  residual activity: 95%
[15]; compound 1.0 µM
  residual activity: 56%
[16]; compound 0.1 µM
  residual activity: 104%
[16]; compound 1.0 µM
  residual activity: 57%
[17]; compound 0.1 µM
  residual activity: 14%
[17]; compound 1.0 µM
  residual activity: 5%
[18]; compound 0.1 µM
  residual activity: 22%
[18]; compound 1.0 µM
  residual activity: 3%
[19]; compound 0.1 µM
  residual activity: 50%
[19]; compound 1.0 µM
  residual activity: 16%
[20]; compound 0.1 µM
  residual activity: 4%
[20]; compound 1.0 µM
  residual activity: 3%
[21]; compound 0.1 µM
  residual activity: 56%
[21]; compound 1.0 µM
  residual activity: 12%
[22]; compound 0.1 µM
  residual activity: 28%
[23]; compound 0.1 µM
  residual activity: 104%
[23]; compound 1.0 µM
  residual activity: 87%
[24]; compound 0.1 µM
  residual activity: 59%
[24]; compound 1.0 µM
  residual activity: 17%
[25]; compound 0.1 µM
  residual activity: 63%
[25]; compound 1.0 µM
  residual activity: 31%
[26]; compound 0.1 µM
  residual activity: 10%
[26]; compound 1.0 µM
  residual activity: 4%
[27]; compound 0.1 µM
  residual activity: 60%
[27]; compound 1.0 µM
  residual activity: 17%
[28]; compound 0.1 µM
  residual activity: 23%
[28]; compound 1.0 µM
  residual activity: 6%
[29]; compound 0.1 µM
  residual activity: 40%
[29]; compound 1.0 µM
  residual activity: 13%
[30]; compound 0.1 µM
  residual activity: 69%
[30]; compound 1.0 µM
  residual activity: 19%
[31]; compound 0.1 µM
  residual activity: 58%
[31]; compound 1.0 µM
  residual activity: 28%
[32]; compound 0.1 µM
  residual activity: 76%
[32]; compound 1.0 µM
  residual activity: 34%
[33]; compound 0.1 µM
  residual activity: 89%
[33]; compound 1.0 µM
  residual activity: 59%
[34]; compound 0.1 µM
  residual activity: 67%
[34]; compound 1.0 µM
  residual activity: 28%
[35]; compound 0.1 µM
  residual activity: 78%
[35]; compound 1.0 µM
  residual activity: 26%
